Reference: PubChem BioAssay (NCI)
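Compound exposure: 48 hours, 5 concentrations, 96-well plates. GI50 marks 50% less growth. TGI: concentration producing complete growth inhibition.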

Columns and labels:
Assay in all cases: growth of human tumour cells (NCI), 48 h
OVCAR-4 ovarian = test system: OVCAR-4 ovarian
SN12C renal = test system: SN12C renal
NCI-H23 lung = test system: NCI-H23 lung
HL-60(TB) leukemia = test system: HL-60(TB) leukemia
HT29 colon = test system: HT29 colon
U251 CNS = test system: U251 CNS
786-0 renal = test system: 786-0 renal
OVCAR-3 ovarian = test system: OVCAR-3 ovarian
IGROV1 ovarian = test system: IGROV1 ovarian
SW-620 colon = test system: SW-620 colon

| SMILES | GI50 (OVCAR-4 ovarian) [µM] | TGI (OVCAR-4 ovarian) [µM] | GI50 (SN12C renal) [nM] | TGI (SN12C renal) [µM] | GI50 (NCI-H23 lung) [µM] | TGI (NCI-H23 lung) [µM] | GI50 (HL-60(TB) leukemia) [nM] | TGI (HL-60(TB) leukemia) [µM] | GI50 (HT29 colon) [nM] | TGI (HT29 colon) [µM] | GI50 (U251 CNS) [µM] | TGI (U251 CNS) [µM] | GI50 (786-0 renal) [µM] | TGI (786-0 renal) [µM] | GI50 (OVCAR-3 ovarian) [nM] | TGI (OVCAR-3 ovarian) [µM] | GI50 (IGROV1 ovarian) [µM] | TGI (IGROV1 ovarian) [µM] | GI50 (SW-620 colon) [nM] | TGI (SW-620 colon) [µM] |
| --- | --- | --- | --- | --- | --- | --- | --- | --- | --- | --- | --- | --- | --- | --- | --- | --- | --- | --- | --- | --- |
| CC(=O)/C=C/c1ccc(Nc2c3ccccc3nc3occ(Cl)c23)cc1 | 4.35 | 30.2 | 3290 | 14.3 | 3.1 | 13.2 | 3100 | 8.56 | 2580 | > 100 | 2.33 | 6.83 | 3.17 | 17.2 |  |  |  |  |  |  |
| COc1ccc(-c2c(C#N)c(N)nc(N3CCOCC3)c2C#N)cc1 | 47 | > 100 | 25700 | > 100 |  |  | 20200 | 63.5 | 26600 | > 100 | 27.4 | > 100 | 20.7 | 76.6 | 12900 | 45.4 | 3.08 | 21 | 50300 | > 100 |
| C=C(CN1CCc2c([nH]c3ccccc23)C1)c1ccc(C(=O)Nc2ccccc2N)cc1 | 5.48 | 13.5 | 2330 | 9.98 | 3.73 | 19.9 | 670 | 7.25 |  |  | 1.42 | 7.73 | 4.96 | 23.6 | 18400 | 29.1 | 1.08 | 18.9 | 3890 | 28.5 |
| COc1ccc2c(c1)C(=O)/C(=C/c1cccc(OCC(=O)Nc3nc(C)c(C)s3)c1)O2 | 2.03 | 6.91 | 171 | 2.66 | 0.0547 | 0.715 | 44.4 | 0.175 | 30.2 | 0.111 |  |  | 0.0238 | 0.0545 | 17.9 | 0.0366 |  |  | 499 | 1.86 |
| Clc1ccccc1CN1COc2c(ccc3cccnc23)C1 |  | 14.6 |  | 23.2 |  | 5.34 |  | 4.33 |  |  |  | 19.1 |  | 14.8 |  | 11.2 |  | 11.6 |  | 12.4 |
| CC(=O)c1cccc(NC(=O)C(=O)c2c(O)c3ccccc3oc2=O)c1 |  | > 100 |  | > 100 |  | > 100 |  |  |  | > 100 |  | > 100 |  | > 100 |  | > 100 |  | > 100 |  | > 100 |
| CO[C@H]1/C=C/O[C@@]2(C)Oc3c(C)c(O)c4c(O)c(c(/C=N/N5CCN(C)CC5)c(O)c4c3C2=O)NC(=O)/C(C)=C\C=C\[C@H](C)[C@H](O)[C@@H](C)[C@@H](O)[C@@H](C)[C@H](OC(C)=O)[C@@H]1C |  |  |  | > 100 |  |  |  |  |  | > 100 |  |  |  | > 100 |  | > 100 |  | > 100 |  | > 100 |
| O=C(NN1C(=O)CSC1c1cccc(Cl)c1)C(O)c1ccccc1 (stereo unspecified) | 66.7 | > 100 | > 100000 | > 100 | 56.3 | > 100 |  |  | > 100000 | > 100 | 59.2 | > 100 | > 100 | > 100 | 33800 | > 100 | > 100 | > 100 | > 100000 | > 100 |
| Cc1cc(NCc2cc(Nc3ccnc4cc(Cl)ccc34)ccc2F)nc(N2CCOCC2)n1 |  |  | 1840 | 4.3 | 2.43 | 7.28 | 1770 | 3.82 | 2210 | 5.68 | 1.95 | 4.05 | 1.66 | 3.12 | 1530 | 2.95 | 1.93 | 5.11 | 1810 | 4.7 |
| CN/N=C(/c1nc2ccc([N+](=O)[O-])cc2[nH]c1=O)C(O)c1ccc(C(O)/C(=N\NC)c2nc3ccc([N+](=O)[O-])cc3[nH]c2=O)cc1 (stereo unspecified) |  |  |  |  |  | > 100 |  | 53.5 |  | > 100 |  | > 100 |  | > 100 |  | > 100 |  | > 100 |  | > 100 |
| CCOC(=O)C1Cc2ccc3c4c(ccc(c24)C1)CC(C(=O)OCC)C3 |  |  |  | > 100 |  | > 100 |  | > 100 |  | > 100 |  | > 100 |  | > 100 |  | > 100 |  | > 100 |  | > 100 |
| COc1ccc(Nc2nc(Nc3cc(C)[nH]n3)c3cc(OC)c(OC)cc3n2)cc1 | 0.789 | 2.22 |  |  | 1.16 | 2.82 |  |  |  |  |  |  | 1.49 | 3.02 | 1010 | 2.26 |  |  | 314 | 1.02 |
| COc1ccc(-c2cnnn2-c2nonc2-n2cccc2)cc1OC | 18.6 | > 100 | 5710 | > 100 | 4.09 | > 100 | 3090 | 15.4 | 3310 | > 100 |  |  | 7.15 | > 100 | 3970 | > 100 | 5.13 | > 100 | 3610 | > 100 |
| COc1ccc(/C=C2/C(=O)N(C(=O)c3ccccc3O)N=C2C)cc1 |  | > 100 |  | > 32 |  |  |  | 9.87 |  | > 100 |  | > 100 |  | > 100 |  | > 30.4 |  | 0.0784 |  | > 100 |
| Cc1ccc(S(=O)(=O)c2nc(-c3ccccc3)oc2S(C)(=O)=O)cc1 | 1.92 | 3.72 | 1920 | 3.95 | 6.73 | 22.6 | 2000 | 6.43 | 2810 | 6.6 | 5.88 | 18.3 | 1.66 | 3.19 | 1860 | 3.35 |  |  | 2050 | 4.21 |
| CN(C)c1ccc(/C=C(\NC(=O)c2ccccc2)c2nc3ccc4c(c3[nH]2)C(=O)c2ccccc2C4=O)cc1 |  | > 100 |  | > 100 |  | > 100 |  |  |  | > 100 |  | > 100 |  | > 100 |  | > 100 |  | > 100 |  | > 100 |
| CC(=O)c1ccc(NC(=O)C(=O)C(C(=O)/C=C/c2ccccc2)C2OC(=O)c3ccccc32)cc1 (stereo unspecified) |  | > 100 |  | > 100 |  | > 100 |  | > 100 |  | > 100 |  | > 100 |  | > 100 |  |  |  | > 100 |  | > 100 |
